Data set [1] concerns the target T1, Intestinal 5-HT3 receptor (Cavia porcellus, UniProt O70212).
T1 sequence (O70212 24-490 limits assumed): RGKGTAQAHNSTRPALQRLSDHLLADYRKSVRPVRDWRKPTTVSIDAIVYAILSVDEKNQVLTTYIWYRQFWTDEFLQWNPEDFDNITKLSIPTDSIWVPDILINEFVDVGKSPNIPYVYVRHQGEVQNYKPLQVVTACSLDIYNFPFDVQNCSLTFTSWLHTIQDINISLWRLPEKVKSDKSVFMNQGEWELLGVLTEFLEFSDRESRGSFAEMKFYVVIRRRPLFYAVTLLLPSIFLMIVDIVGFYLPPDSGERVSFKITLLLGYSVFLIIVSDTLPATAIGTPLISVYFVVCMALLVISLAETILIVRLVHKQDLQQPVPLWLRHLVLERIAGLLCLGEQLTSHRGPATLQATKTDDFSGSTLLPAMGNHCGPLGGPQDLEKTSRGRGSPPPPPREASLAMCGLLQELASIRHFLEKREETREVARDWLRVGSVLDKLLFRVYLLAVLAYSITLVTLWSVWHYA
As to the kind of experiment: Intestinal 5-HT3 receptor antagonism (isolated distal colon, 2-methylserotonin-induced contraction). Type of data set: cell-based, Hartley guinea pigs. To be noted: for Kb: isolated distal colon, 2-methylserotonin contraction.
Protocol: The test was conducted following the method of Miyata, et al. (The Journal of Pharmacology and Experimental Therapeutics Vol.259, No:1, 15 (1991)).
Male Hartley guinea pigs with a body weight of 300-400 g were bled to death, the distal colon (3-10 cm from the anus) was isolated and suspended in a Magnus tube filled with Krebs solution aerated with a mixed gas (95% O2, 5% CO2), and subjected to a tensile load of 1 g. After constant contraction by cumulative addition of 2-methylserotonin (10^-6 -10^-4 M) was obtained, the test agent was added and the pA2 value of the test agent was calculated based on its inhibiting action on the initial value.
The value (pA2 value) is defined as the negative logarithm (-logM) of the molar concentration (M) of the antagonist required to reduce the effect of serotonin at a concentration of 2 times the 2-methylserotonin concentration (EC50) necessary to induce half of the maximum contraction reaction, to an effect induced by an EC50 of serotonin.

Data set [2] concerns the target T2, 5-HT3 receptors in the heart (Rattus norvegicus, UniProt P35563).
T2 construct: from tissue; host or cells: living anesthetized male SD rats (in vivo)
T2 sequence (P35563 24-483): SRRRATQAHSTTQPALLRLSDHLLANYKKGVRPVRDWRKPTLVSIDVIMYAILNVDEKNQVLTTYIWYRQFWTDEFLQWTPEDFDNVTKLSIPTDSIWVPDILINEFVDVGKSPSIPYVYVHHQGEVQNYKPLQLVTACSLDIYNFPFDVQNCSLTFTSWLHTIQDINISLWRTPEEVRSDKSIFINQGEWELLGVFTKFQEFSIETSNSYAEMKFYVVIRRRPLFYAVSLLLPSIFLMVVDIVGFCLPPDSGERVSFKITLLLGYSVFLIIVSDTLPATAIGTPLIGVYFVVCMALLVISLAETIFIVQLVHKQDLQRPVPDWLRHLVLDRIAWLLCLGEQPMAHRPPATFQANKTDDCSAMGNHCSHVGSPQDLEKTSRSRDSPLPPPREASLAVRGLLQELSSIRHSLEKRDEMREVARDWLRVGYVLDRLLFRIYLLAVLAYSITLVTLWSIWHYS
Kind of data set: Antagonism against Von Bezold-Jarisch reflex (BJ reflex). Type of data set: in vivo, SD rats. To be noted: 5 min before serotonin 30 μg/kg, read-out: ID50 (the source's name). As to the method: Antagonism against Von Bezold-Jarisch reflex (BJ reflex):
The pulse was determined by measuring the electrocardiogram R waves (secondary induction) with an instantaneous pulse rate meter.

A further data set can be described thus: Acute toxicity (oral). In kind it is in vivo. To be noted: rats; for LD50: rat, in vivo; for cases of death: 1000 mg/kg.
The test system of data set [3] is cisplatin-induced vomiting. As to the kind of experiment: Inhibiting effect on cisplatin-induced vomiting. In kind it is in vivo, ferrets. To be noted: oral, 1 hour before cisplatin; for No. of retching / No. of vomiting animals/No. of animals used / No. of vomitings: 6 hours. The text has this:
Inhibiting effect on cisplatin-induced vomiting:
Vomiting was induced in ferrets by administration of cisplatin. The inhibiting effect on this vomiting was observed. […] The test agents were orally administered one hour prior to cisplatin administration. […]

In data set [4] the test system is duodenal extension reflex. Kind of data set: Inhibiting effect on duodenal extension reflex. To be noted: for Inhibition rate, 5-min value / Inhibition rate, 15-min value / Inhibition rate, 25-min value: intravenous. Type of data set: in vivo, Wistar rats. The text has this:
Inhibiting effect on duodenal extension reflex: Unfasted male Wistar rats with a body weight of 300-390 g were opened at the abdomen under urethane anesthesia, and ligated at 2 locations, the gastric pyloric region and 3-4 cm directly under it, to create a duodenal loop. […] The beaker was raised at once to create a internal loop pressure of 75 cm H2, and the depressor reflex and effect of the test agent administration were observed. […] The test agent was then administrated intravenously, and at 5, 15 and 25 minutes after administration an extension stimulus was applied, the depressor reflex was observed, and the differences were expressed as percentages with respect to the initial value, to give the inhibition rates.

The subject of data set [5] is restrained stress-induced diarrhea. As to the kind of experiment: Inhibiting effect on restrained stress-induced diarrhea (oral administration). To be noted: 1 hour before stress. In kind it is in vivo, Wistar rats. As to the method:
Inhibiting effect on restrained stress-induced diarrhea (oral administration): This test was conducted following the method of Miyata, et al. […] Nine-week-old male Wistar rats fasted overnight were placed in a stress cage and their feces produced in 5 hours were observed. Of 15 rats, 14 developed diarrhea. The inhibiting effect on diarrhea was measured by oral administration of the test compounds one hour prior to placement in the stress cage.

In data set [6] the test system is 5-HT3 receptors in the upper intestine. Kind of data set: Antagonism against 5-HT-induced intestinal secretion (jejunal loop). In kind it is in vivo, wister rats. As to conditions: for net fluid transfer in jejunal loop: caudal vein, 15 min before serotonin. Here is the method: Antagonism against 5-HT-induced intestinal secretion:
Male wister rats (8-11 weeks old) were anesthetized with urethane, and the abdomen was opened a polyethylene catheter was placed in the jejunum 5 cm distal to the duodenojejunal flexure and fixed by ligation. The second ligation was made at a distal point of 20 cm to create a jejunal loop. Two ml of physiological saline was injected into this loop and initiated continuous injection of physiological saline (0.1 ml/min) or 5-HT (3 μg/0.1 ml/kg/min, serotonin treated group) into the mesenteric artery through the mesenteric artery gastric branch, and after 30 minutes the jejunal loop was isolated, the residual fluid amount was measured, and the net fluid transfer per gram of tissue weight was calculated. The net fluid transfer was expressed as the fluid amount (weight) change in 30 minutes per jejunal tissue weight (g/30 min/g). A "+" was assigned when the fluid amount increased compared with 2 ml of physiological saline injected into the loop, and "-" when it decreased

The test system of data set [7] is restraint stress-induced diarrhea. As to the kind of experiment: Inhibiting effect on restraint stress-induced diarrhea (intraabdominal administration). To be noted: 30 μg/kg, 30 min before stress. In kind it is in vivo, Wistar rats. As to the method:
Inhibiting effect on restraint stress-induced diarrhea (intraabdominal administration): This test was conducted in the same manner as Test 3. Nine- to ten-week-oldmale Wistar rats fasted overnight were placed in a stress case and their feces produced in 5 hours were observed. Of 15 rats, 14 developed diarrhea. The inhibiting effect on diarrhea was measured by intraabdominal administration of a test compound 30 minutes prior to placement in the stress cage.

The subject of the next data set is gastric emptying. As to the kind of experiment: Accelerating effect on gastric emptying (cisplatin-reduced). In kind it is in vivo, SD rats. To be noted: for Gastric evacuation: oral, 30 min before cisplatin 10 mg/kg. As to the method: Accelerating effect on gastric emptying
Seven-week-old male SD rats which had been fasted for 24 hours were used. The effect on gastric emptying was studied in rats with reduced gastric emptying due to cisplatin. The rats were intragastrically administered the test feed (1.5% aqueous CMC solution containing 50 mg/100 ml phenol red) at 1.5 ml/rat, and after 15 minutes the stomachs were dissected, the residual amount of phenol red in the stomach was measured, in order to determine the gastric emptying in normal animals. A cisplatin-induced reduction in gastric emptying was measured by intraabdominal administration of cisplatin (10 mg/kg) 30 minutes prior to supplying the test feed. The test compound was also administered orally 30 minutes prior to the cisplatin administration to study the accelerating effect of the test compound on gastric emptying.

Where [8] appears, read: read-out: M (molar concentration of antagonist).

SMILES strings stand for the structures. Where a name gives a salt, the structure may show the parent alone. Read-outs that look alike come from different tables or passages of the source.

Regarding `CC1CN(C(=O)C2CCc3[nH]cnc3C2)c2ccccc21` (stereo not shown) [A, reference compound], the Kb in data set [1] (read-out: pA2 (converted)) was above 10 nM.

Turning to `Cl.O=C(C1CCc2nc[nH]c2C1)N1CC(c2ccccc2)c2ccccc21` (stereo not shown) [Compound 2, 5-[(3-phenylindolin-1-yl)carbonyl]-4,5,6,7-tetrahydrobenzimidazole hydrochloride], the Kb in [1] (read-out: pA2 (converted)) was 1 nM. For the same compound, in data set [2] (iv), the ED50 was determined as 0.0003 mg/kg.

Broadly, the LD50 is the dose at which mortality reaches 50%. High values mean a less toxic substance, low ones a more toxic substance. As to `Cl.O=C(C1CCc2nc[nH]c2C1)N1CC(c2ccccc2)c2ccccc21` (stereo not shown) [Compound 4, 5-[(3-phenylindolin-1-yl)carbonyl]-4,5,6,7-tetrahydrobenzimidazole hydrochloride], in the data set “Acute toxicity (oral)”, the 50% lethal dose (LD50) is at least 1000 mg/kg and the cases of death entry is recorded as “no cases of death”. Also, the “activity in the colon compared to YM-060 and YM-114” value in data set [1] (colon, relative to YM-060 and YM-114) is on record as “about 15 -fold”. For the same compound, the Kb in data set [1] (setting [8]) was 0.3 nM. For the same compound, the Kb in data set [1] (read-out: pA2 (converted)) was 0.251 nM. In data set [3] (0.3 μg), the “Latency* (time to initial retching)” value came out at 114.0 min, the “Latency** (time to initial vomiting)” value was 114.0 min, the No. of retching was found to be 139.0 and the “No. of vomiting animals/No. of animals used” value is 2/2. In data set [3] (0.3 μg), this compound yielded a No. of vomitings of 7.0. Besides, in data set [3] (1.0 μg), the “Latency* (time to initial retching)” value is given as above 289.7 min, the “Latency** (time to initial vomiting)” value is 293.0 min, the No. of retching is 14.7 and the “No. of vomiting animals/No. of animals used” value is recorded as 1/3. In addition, the No. of vomitings in data set [3] (1.0 μg) amounted to 1.0. Moreover, in data set [4] (1 μg/kg), the “Inhibition rate, 5-min value” is reported as 21.7%; the “Inhibition rate, 15-min value” amounted to 6.7%; the “Inhibition rate, 25-min value” is on record as 20.2%. In [4] (10 μg/kg), the “Inhibition rate, 5-min value” is 16.3%; the “Inhibition rate, 15-min value” is on record as 17.8%; the “Inhibition rate, 25-min value” is given as 21.1%. For the same compound, the “inhibition of intestinal sensitivity to dilatation / alleviation of abdominal pain (in words)” value in data set [4] (rat, in vivo) is listed as “inhibited intestinal sensitivity to dilatation stimulation more strongly than YM-060”. Further, the ED50 in [2] (iv) was 0.00039 µmol/kg. In data set [5] (30 μg/kg), the Inhibition rate came to 70% and the “No. of animals with diarrhea/No. of animals used” value was 3/10. Moreover, in data set [6] (0.1 μg/kg), the “net fluid transfer in jejunal loop” value is given as -0.50 ± 0.07 g/30 min/g tissue weight. The “net fluid transfer in jejunal loop” value in [6] (1.0 μg/kg) is recorded as -0.80 ± 0.09 g/30 min/g tissue weight. Besides, in [7], the Inhibition rate came out at 90% and the “No. of animals with diarrhea/No. of animals used” value was 1/10. Further, in the data set on gastric emptying (0.3 μg/kg), the “inhibition of cisplatin-induced gastric emptying reduction (in words)” value was “inhibited similar cisplatin-induced gastric emptying reduction” and the Gastric evacuation was determined as 73.3%. In addition, the “amount needed relative to YM-060 for similar inhibition of gastric emptying reduction” value in the data set with gastric emptying (0.3 μg/kg, relative to the amount of YM-060) is “less than 1/3”. In the data set on gastric emptying (1.0 μg/kg), the “gastric emptying acceleration (in words)” value is reported as “gastric emptying was further accelerated” and the Gastric evacuation is 82.4%.

On to `Cl.O=C(C1CCc2nc[nH]c2C1)N1CC(c2cccc(O)c2)c2ccccc21` (stereo not shown) [Compound 6, 5-[(3-(3-hydroxyphenyl)indolin-1-yl)carbonyl]-4,5,6,7-tetrahydrobenzimidazole hydrochloride], for which, in the data set “Acute toxicity (oral)”, the LD50 was at least 1000 mg/kg and the cases of death entry was “no cases of death”. The Kb in data set [1] (read-out: pA2 (converted)) is 0.1 nM. Besides, the ED50 in data set [2] (iv) was 0.00015 mg/kg. In addition, in data set [5] (100 μg/kg), the Inhibition rate was determined as 100% and the “No. of animals with diarrhea/No. of animals used” value was 0/5.

`Cl.O=C(C1CCc2nc[nH]c2C1)N1CC(c2ccc(O)cc2)c2ccccc21` (stereo not shown) [Compound 8, 5-[(3-(4-hydroxyphenyl)indolin-1-yl)carbonyl]-4,5,6,7-tetrahydrobenzimidazole hydrochloride]: in “Acute toxicity (oral)”, the LD50 is at least 1000 mg/kg and the cases of death entry was “no cases of death”. Besides, the Kb in [1] (read-out: pA2 (converted)) is 0.1 nM. In data set [2] (iv), the ED50 was determined as 0.00013 mg/kg. In data set [5] (30 μg/kg), the Inhibition rate turned out to be 70% and the “No. of animals with diarrhea/No. of animals used” value is recorded as 2/10.

With `O=C(C1CCc2nc[nH]c2C1)N1CC(c2ccccc2O)c2ccccc21` (stereo not shown) [Compound 10, 5-[(3-(2-hydroxyphenyl)indolin-1-yl)carbonyl]-4,5,6,7-tetrahydrobenzimidazole hydrochloride], the Kb in [1] (setting [8]) is 0.05 nM; in data set [1] (read-out: pA2 (converted)), 0.126 nM.

As for `COc1cccc(C2CN(C(=O)C3CCc4nc[nH]c4C3)c3ccccc32)c1` (stereo not shown) [Compound 12, 5-[(3-(3-methoxyphenyl)indolin-1-yl)carbonyl]-4,5,6,7-tetrahydrobenzimidazole hydrochloride], the figures for the Kb in [1] (setting [8]) and in data set [1] (read-out: pA2 (converted)) were 0.13 nM and 0.1 nM, respectively.

As for `CN1[C@@H]2CC[C@H]1C[C@@H](OC(=O)c1c[nH]c3ccccc13)C2` [Tropisetron, endo-8-methyl-8-azabicyclo[3,2,1]octa-3-yl indol-3-ylcarboxylate], in [4] (10 μg/kg), the “Inhibition rate, 5-min value” was found to be 42.7%; the “Inhibition rate, 15-min value” came to 44.1%; the “Inhibition rate, 25-min value” was determined as 30.6%.

As for `O=C([C@@H]1CCc2[nH]cnc2C1)N1CCc2ccccc21` [YM-114, reference compound], the Kb in data set [1] (read-out: pA2 (converted)) is 3.98 nM. For the same compound, the ED50 in [2] (intravenous) came out at 0.00015 mg/kg. In data set [5] (30 μg/kg), the Inhibition rate turned out to be 30% and the “No. of animals with diarrhea/No. of animals used” value is listed as 7/10.

With `NCCc1c[nH]c2ccc(O)cc12` [serotonin, 5-hydroxytryptamine], the “acceleration in intestinal secretion” value in data set [6] (serotonin administration versus control) came to 0.19 g/30 min/g tissue weight.

Values taken from patent US5677326A, “Indoline compound and 5-HT3 receptor antagonist containing the same as active ingredient” (Tokyo Tanabe Company Limited, priority 1993, dated 1997).
